Experimental data reported in patent US20260109672A1, “SARS-COV-2 MPRO INHIBITORS AND USES THEREOF” (NXERA PHARMA UK LIMITED, priority 2022, published 2026).

Biological target: SARS-CoV-2 Mpro (Severe acute respiratory syndrome coronavirus 2, UniProt P0DTD1)
Test: Modified SARS-CoV-2 Mpro enzyme assay (FRET, kinetic read) for reference examples
Assay type: biochemical
Settings: 5 nM Mpro, 20 min preincubation at room temperature, mean n=2, set out in PCT/GB2022/050836

| Substance | SARS-CoV-2 Mpro enzyme pKi assay pKi |
| --- | --- |
| (1R,2S,5S)-N-(4-(cyclopropylamino)-3,4-dioxo-1-((S)-2-oxopyrrolidin-3-yl)butan-2-yl)-3-((E)-3-(2,4-difluorophenyl)acryloyl)-6,6-dimethyl-3-azabicyclo[3.1.0]hexane-2-carboxamide [Example 7] | 6.7 |
| (1R,2S,5S)-N-(4-(cyclopropylamino)-3,4-dioxo-1-((S)-2-oxopyrrolidin-3-yl)butan-2-yl)-3-((S)-3,3-dimethyl-2-(2,2,2-trifluoroacetamido)butanoyl)-6,6-dimethyl-3-azabicyclo[3.1.0]hexane-2-carboxamide [Example 1] | 7.8 |
| (1R,2S,5S)-N-[3-amino-1-(cyclopropylmethyl)-2,3-dioxo-propyl]-6,6-dimethyl-3-[(2S)-3-methyl-2-[(2,2,2-trifluoroacetyl)amino]butanoyl]-3-azabicyclo[3.1.0]hexane-2-carboxamide [Example 3] | 7.1 |
| (1R,2S,5S)-N-[3-(cyclopropylamino)-2,3-dioxo-1-[(3S)-2-oxopyrrolidin-3-yl]methyl]propyl]-3-[(2S)-3,3-dimethyl-2-(2-methylpropanoylamino)butanoyl]-6,6-dimethyl-3-azabicyclo[3.1.0]hexane-2-carboxamide [Example 5] | 6.8 |
| (1R,2S,5S)-N-[1-(cyclopropylmethyl)-3-(methylamino)-2,3-dioxo-propyl]-3-[(2S)-3,3-dimethyl-2-[(2,2,2-trifluoroacetyl)amino]butanoyl]-6,6-dimethyl-3-azabicyclo[3.1.0]hexane-2-carboxamide [Example 2] | 7.3 |
| (1R,2S,5S)-N-[3-(cyclopropylamino)-2,3-dioxo-1-[[(3R)-2-oxo-3-piperidyl]methyl]propyl]-3-[(2S)-3,3-dimethyl-2-[(2,2,2-trifluoroacetyl)amino]butanoyl]-6,6-dimethyl-3-azabicyclo[3.1.0]hexane-2-carboxamide [Example 6] | 6.7 |
| (1R,2S,5S)-N-[3-amino-1-(cyclobutylmethyl)-2,3-dioxo-propyl]-3-[(2S)-3,3-dimethyl-2-[(2,2,2-trifluoroacetyl)amino]butanoyl]-6,6-dimethyl-3-azabicyclo[3.1.0]hexane-2-carboxamide [Example 4] | 7.3 |
